Measurements from patent US20220372560A1, “METHODS FOR DETECTING OLIGONUCLEOTIDES” (Takeda Pharmaceutical Company Limited, priority 2019, published 2022).

Assay: Persistence of PMO and P-PMO in serum and tissues two weeks post-last dose (FIGS. 5a, 5b)
Format: in vivo
Conditions: mice
Experimental: PMO or P-PMO serial dilutions for standard curves and quality controls in 5.0% mouse serum, and 5.0 mg/ml or 1.0 mg/ml tissue homogenates were made using 1×TE buffer supplemented with 0.1% v/v Triton X-100 with a starting concentration of 51.2 nM PMO/P-PMO. Serum samples were diluted 20-fold, and tissues were homogenized and diluted to 5.0 mg/ml or 1.0 mg/ml tissue homogenates with the same buffer. 200 μL of calibrator solution, quality control, and/or sample were treated with 20 μL of 40 mg/ml trypsin (purchased as lyophilized powder from Sigma-Aldrich) at 37° C. overnight in a deep 1.0-mL 96-well plate on thermomixer C (600 rpm) to cleave the peptide component and release the PMO. 40 μL of 2.5 nM oligonucleotide probe in hybridization buffer (with 0.1% serum) was added to each well. The plate was then sealed, incubated at 65° C. for 15 minutes (600 rpm), and allowed to cool at room temperature for 15 minutes. […] The intensity of fluorescence at 444 nm excitation and 555 nm emission was measured by a […] SpectraMax MT5 microplate reader.
In order to test the persistence of oligonucleotides, serum and various tissues were also analyzed two weeks post-last dose. Serum levels for both PMO and P-PMO treated mice were measured in the 1 nM range. At this time point the overall oligonucleotide levels in the tissues analyzed were also similar (FIG. 5a). […]

In the case of “PMO: 25-mer PMO antisense sequence for mouse dystrophin exon-23, 5′-GGCCAAACCTCGGCTTACCTGAAAT-3′ (SEQ ID NO: 1), not conjugated to a peptide (all phosphorodiamidate morpholino (PMO))”, the serum levels is reported as ~1 nM and the “overall oligonucleotide levels in the tissues analyzed, PMO compared with P-PMO” value (absolute concentrations (FIG. 5a)) is reported as “similar”.
